# Calls of active or inactive are those of the source.
# What was measured:
# [1] = molecular target: T1, Mannose-6-phosphate isomerase (Homo sapiens, UniProt P34949); assay: PMI enzyme inhibitors, confirmation, biochemical, fluorescence intensity (AID 1535)
# T1 sequence (P34949 whole entry): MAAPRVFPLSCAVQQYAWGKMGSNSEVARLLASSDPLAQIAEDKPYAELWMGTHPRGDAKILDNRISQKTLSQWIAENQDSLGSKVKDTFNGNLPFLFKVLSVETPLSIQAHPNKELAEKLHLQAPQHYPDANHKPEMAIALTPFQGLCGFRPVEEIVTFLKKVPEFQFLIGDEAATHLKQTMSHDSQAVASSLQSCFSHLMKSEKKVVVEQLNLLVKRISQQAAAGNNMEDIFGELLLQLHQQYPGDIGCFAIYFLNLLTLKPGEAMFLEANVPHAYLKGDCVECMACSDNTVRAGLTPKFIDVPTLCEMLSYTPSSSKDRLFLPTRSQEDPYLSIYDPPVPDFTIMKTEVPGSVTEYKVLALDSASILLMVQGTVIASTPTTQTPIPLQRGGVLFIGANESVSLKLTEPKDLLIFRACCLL
# [2] = molecular target: Phosphomannomutase 2 (Homo sapiens, UniProt O15305); assay: Counter screen SAR assay for PMM2 inhibitors via a fluorescence intensity assay. [Related pubchem assays (depositor defined):AID1545, AID1574]
# [3] = insulin promoter down-regulators in MIN6 cells, imaging, high-content screening, mouse beta cells (AID 1628); type: functional
# [4] = system: BJ; assay: cytotoxicity toward BJ-TERT fibroblasts, dose response, cell-based, RAS-independent, luminescence (AID 1933); type: functional; settings: Homo sapiens
# [5] = cells; type: functional, cell-based
# [6] = cytotoxicity in MIN6 insulinoma cells, dose response, cytotoxicity control, cell-based, mouse insulinoma (AID 2122); type: functional;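 also: confirmatory high-throughput counterscreen run to flag cytotoxic compounds; mouse MIN-6 beta cells carrying an insulin promoter eGFP reporter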
# [7] = system: BJ; assay: cells; type: functional, cell-based; settings: Homo sapiens
# [8] = inhibitors of intracellular T. cruzi replication, confirmation, NIH3T3 host cells, beta-gal luminescence (AID 2044); type: functional, cell-based;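 also: intracellular parasites grown in NIH/3T3 mouse fibroblasts as host cells; luminescent beta-galactosidase reporter signal from transgenic T. cruzi replicating inside host cells; inhibitors lower the luminescence signal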
# [9] = cells; type: functional, cell-based; remark: listed apart in the source
# [10] = cytotoxicity toward NIH3T3 fibroblasts, dose response, counter-screen, cell-based, ATP luminescence, mouse fibroblasts (AID 2010); type: functional;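 also: cells exposed to compound for about 90 hours before reading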
# [11] = system: BJ; assay: cytotoxicity toward BJ-TERT-LT-ST fibroblasts, dose response, cell-based, RAS-independent, luminescence (AID 1935); type: functional; settings: Homo sapiens;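 also: BJ fibroblasts immortalized with TERT plus LT and ST oncogenes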
# [12] = cytotoxicity toward DRD oncogenic fibroblasts, dose response, cell-based, non-viral oncogenic, luminescence (AID 1934); type: functional; settings: Homo sapiens
# [13] = system: INS1; assay: beta cell apoptosis inhibitors, cytokine rescue, dose response, luminescence, retest (AID 449756); type: functional, cell-based; settings: Rattus norvegicus;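 also: cell death triggered by IL-1 beta plus TNF-alpha plus IFN-gamma mixture; protective hits raise ATP signal compared with cytokine alone wells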
# [14] = Shn3 3'UTR reporter inhibitors, dose response, cell-based, Clone20 osteoblasts, firefly luciferase, cherry-picked (AID 624132); type: functional;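 also: firefly luciferase luminescence from reporter carrying the Shn3 3'UTR in osteoblasts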
# [15] = HepG2 cell cytotoxicity, dose response, cytotoxicity control for Shn3 inhibitor project, CellTiter-Glo, cherry-picked (AID 624134); type: functional, cell-based
# [16] = control 3'UTR Renilla luciferase suppression, dose response, counter-screen for Shn3 inhibitor project, cell-based, Clone20-Shn3RL, cherry-picked (AID 624133); type: functional
# [17] = HEK293T cytotoxicity, dose response, cytotoxicity control for miR-122 modulator project, cell-based, inhibitor set, cherry-pick, set 2 (AID 720697); type: functional
# [18] = HEK293T cytotoxicity, dose response, cytotoxicity control for miR-122 modulator project, cell-based, activator set, cherry-pick (AID 720690); type: functional;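 also: HEK293T human cells scored for general mammalian cytotoxicity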
# [19] = molecular target: Envelope glycoprotein gp160 (Human immunodeficiency virus 1, UniProt Q6QLK5); assay: inhibitors of HIV fusion peptide binding, primary screen, biochemical, uHTS, fluorescence dequenching (AID 1986)
# [20] = molecular target: T2, Tyrosine-protein phosphatase non-receptor type 22 (Homo sapiens, UniProt Q9Y2R2); assay: LYP1 Fluorescent Assay using OMFP substrate for In Vitro dose response studies. [Related pubchem assays (depositor defined):AID1779, AID1784, AID435024]
# T2 sequence (Q9Y2R2 whole entry): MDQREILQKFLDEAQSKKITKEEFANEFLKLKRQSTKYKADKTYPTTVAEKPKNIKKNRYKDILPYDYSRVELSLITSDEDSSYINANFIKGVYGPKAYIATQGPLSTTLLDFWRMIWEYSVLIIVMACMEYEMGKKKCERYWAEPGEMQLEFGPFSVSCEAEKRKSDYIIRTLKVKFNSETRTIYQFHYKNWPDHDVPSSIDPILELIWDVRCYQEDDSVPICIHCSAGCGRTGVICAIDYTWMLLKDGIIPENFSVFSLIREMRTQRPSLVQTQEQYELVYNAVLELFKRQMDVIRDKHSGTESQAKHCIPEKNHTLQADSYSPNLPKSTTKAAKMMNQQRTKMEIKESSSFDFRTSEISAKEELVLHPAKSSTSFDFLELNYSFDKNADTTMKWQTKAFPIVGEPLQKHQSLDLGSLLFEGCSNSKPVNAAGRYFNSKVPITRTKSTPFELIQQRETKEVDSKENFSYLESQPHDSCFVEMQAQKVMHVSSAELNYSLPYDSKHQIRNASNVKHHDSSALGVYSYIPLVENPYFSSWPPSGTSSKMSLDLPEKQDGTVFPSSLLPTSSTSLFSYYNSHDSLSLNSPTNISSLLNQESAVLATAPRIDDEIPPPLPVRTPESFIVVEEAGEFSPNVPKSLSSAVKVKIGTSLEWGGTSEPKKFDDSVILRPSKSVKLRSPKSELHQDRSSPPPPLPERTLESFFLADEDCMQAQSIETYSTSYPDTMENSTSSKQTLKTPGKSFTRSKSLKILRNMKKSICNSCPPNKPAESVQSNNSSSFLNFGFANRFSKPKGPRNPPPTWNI
# [21] = molecular target: T3, Tyrosine-protein phosphatase non-receptor type 7 (Homo sapiens, UniProt P35236); type: functional
# T3 sequence (P35236 whole entry): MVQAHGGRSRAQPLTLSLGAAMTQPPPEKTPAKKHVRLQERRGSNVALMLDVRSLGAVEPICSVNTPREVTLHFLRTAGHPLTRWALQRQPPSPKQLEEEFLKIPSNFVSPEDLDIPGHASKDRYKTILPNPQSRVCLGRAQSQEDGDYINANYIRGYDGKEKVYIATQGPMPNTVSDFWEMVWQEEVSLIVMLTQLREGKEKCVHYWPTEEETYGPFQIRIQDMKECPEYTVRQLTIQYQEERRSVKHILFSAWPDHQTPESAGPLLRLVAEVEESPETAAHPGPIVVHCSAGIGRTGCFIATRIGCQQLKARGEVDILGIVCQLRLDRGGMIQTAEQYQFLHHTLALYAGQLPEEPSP
# [22] = molecular target: T3, Tyrosine-protein phosphatase non-receptor type 7; assay: HTS HePTP Fluorescent Assay using OMFP substrate for In Vitro dose response studies. [Related pubchem assays (depositor defined):AID1059, AID1077, AID1784, AID2068, AID2085, AID435032, AID521]; type: functional
# [23] = molecular target: Induced myeloid leukemia cell differentiation protein Mcl-1 (Homo sapiens, UniProt Q07820); assay: MCL1-BIM BH3 interaction inhibitors, dose response, biochemical, fluorescence polarization, BIM-BH3 peptide, 1536-well (AID 2217)
# [24] = molecular target: T2, Tyrosine-protein phosphatase non-receptor type 22; assay: inhibitors of LYP phosphatase, biochemical, fluorescence intensity, uHTS (AID 1779)
# [25] = molecular target: Bcl-2-like protein 1 (Homo sapiens, UniProt Q07817); assay: BCL-XL inhibitors, dose response, selectivity assay for MCL1 inhibitor project, biochemical, fluorescence polarization, 1536-well (AID 2218)
# [26] = molecular target: SUMO E1/E2 (Homo sapiens, UniProt P63279+Q9UBE0+Q9UBT2); assay: SAR analysis of SUMOylation using HTRF in an in-Vitro dose response assay. [Related pubchem assays (depositor defined):AID2006, AID2011, AID2018, AID2069, AID2658]; type: functional
# [27] = molecular target: T2, Tyrosine-protein phosphatase non-receptor type 22; assay: SAR LYP1 Fluorescent Assay using pCAP substrate for In Vitro dose response studies - Set 2. [Related pubchem assays (depositor defined):AID1779, AID1784, AID2135, AID449727]; type: functional
# [28] = molecular target: Tyrosine-protein phosphatase non-receptor type 12 (Homo sapiens, UniProt Q05209); assay: SAR Selectivity Analysis of small molecule inhibitors of PEST using pCAP in a fluorescence assay. [Related pubchem assays (depositor defined):AID1779, AID1784, AID2135]; type: functional
# [29] = molecular target: T2, Tyrosine-protein phosphatase non-receptor type 22; type: functional
# [30] = molecular target: T2, Tyrosine-protein phosphatase non-receptor type 22; assay: SAR LYP1 Fluorescent Assay using OMFP substrate for In Vitro dose response studies - Set 3. [Related pubchem assays (depositor defined):AID1779, AID1784, AID2140, AID2686]; type: functional
# [31] = molecular target: T3, Tyrosine-protein phosphatase non-receptor type 7; assay: HePTP (PTPN7) phosphatase inhibitor potency, SAR follow-up, biochemical, set 2 (AID 449736); type: functional
# [32] = molecular target: T2, Tyrosine-protein phosphatase non-receptor type 22; type: functional; remark: listed apart in the source
# [33] = molecular target: Eukaryotic translation initiation factor 4E (Mus musculus, UniProt P63073); assay: eIF4E–eIF4G protein interaction inhibitors, dose response, biochemical, TR-FRET (AID 855); type: functional;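 also: potency for disrupting eIF4E binding to eIF4GI seen as loss of FRET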
# [34] = molecular target: T2, Tyrosine-protein phosphatase non-receptor type 22; assay: PubChem AID 2135
# [35] = molecular target: Nonstructural protein 1 (Influenza A virus, UniProt Q194T2); type: functional, Influenza A virus (A/California/07/2009(H1N1))
# [36] = molecular target: T2, Tyrosine-protein phosphatase non-receptor type 22; assay: PubChem AID 2140
# [37] = molecular target: T2, Tyrosine-protein phosphatase non-receptor type 22; assay: SAR LYP1 Fluorescent Assay using OMFP substrate for In Vitro dose response studies - Set 2. [Related pubchem assays (depositor defined):AID1779, AID1784, AID2140, AID449726, AID488869]; type: functional
# [38] = molecular target: Genome polyprotein (dengue virus type 2, UniProt P29990); assay: Dengue-2 NS5 methyltransferase inhibitors, primary screen, biochemical, confirmation dose response (AID 588689); type: functional
# [39] = molecular target: T4, Small ubiquitin-related modifier 2 (Homo sapiens, UniProt P61956); assay: SUMO2–SIM peptide binding inhibitors, dose response, selectivity assay for SUMO1 interaction inhibitor project, biochemical, fluorescence polarization, uHTS hits (AID 624385); type: functional; settings: read-out: IC50_Mean
# [40] = molecular target: T5, Small ubiquitin-related modifier 1 (Homo sapiens, UniProt P63165); assay: inhibitors of SUMO1 peptide binding, dose response, biochemical, fluorescence polarization, uHTS hits (AID 624382); type: functional; settings: read-out: IC50_Mean
# [41] = molecular target: T4, Small ubiquitin-related modifier 2; assay: inhibitors of SUMO2 protein-protein interaction, dose response, selectivity assay for SUMO1 interaction inhibitor project, biochemical, FRET, human SUMO2, uHTS hits (AID 624384); type: functional; settings: read-out: IC50_Mean
# [42] = molecular target: T5, Small ubiquitin-related modifier 1; assay: inhibitors of SUMO1 partner interactions, dose response, biochemical, FRET (AID 624383); type: functional; settings: read-out: IC50_Mean
# [43] = growth induction of Burl-1 ts yeast mutant, dose response, counter-screen for SUMOylation pathway inhibitor project, whole organism, S. cerevisiae, luminescence (AID 463199); type: functional
# T4 sequence (P61956 whole entry): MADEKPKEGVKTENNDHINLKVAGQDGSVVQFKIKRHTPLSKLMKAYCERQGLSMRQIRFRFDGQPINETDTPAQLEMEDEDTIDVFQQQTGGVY
# T5 sequence (P63165 whole entry): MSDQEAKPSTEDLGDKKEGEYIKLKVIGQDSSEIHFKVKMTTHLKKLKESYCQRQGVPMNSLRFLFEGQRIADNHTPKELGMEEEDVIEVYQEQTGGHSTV
# Chain of Genome polyprotein (P29990 2492-3391 limits assumed): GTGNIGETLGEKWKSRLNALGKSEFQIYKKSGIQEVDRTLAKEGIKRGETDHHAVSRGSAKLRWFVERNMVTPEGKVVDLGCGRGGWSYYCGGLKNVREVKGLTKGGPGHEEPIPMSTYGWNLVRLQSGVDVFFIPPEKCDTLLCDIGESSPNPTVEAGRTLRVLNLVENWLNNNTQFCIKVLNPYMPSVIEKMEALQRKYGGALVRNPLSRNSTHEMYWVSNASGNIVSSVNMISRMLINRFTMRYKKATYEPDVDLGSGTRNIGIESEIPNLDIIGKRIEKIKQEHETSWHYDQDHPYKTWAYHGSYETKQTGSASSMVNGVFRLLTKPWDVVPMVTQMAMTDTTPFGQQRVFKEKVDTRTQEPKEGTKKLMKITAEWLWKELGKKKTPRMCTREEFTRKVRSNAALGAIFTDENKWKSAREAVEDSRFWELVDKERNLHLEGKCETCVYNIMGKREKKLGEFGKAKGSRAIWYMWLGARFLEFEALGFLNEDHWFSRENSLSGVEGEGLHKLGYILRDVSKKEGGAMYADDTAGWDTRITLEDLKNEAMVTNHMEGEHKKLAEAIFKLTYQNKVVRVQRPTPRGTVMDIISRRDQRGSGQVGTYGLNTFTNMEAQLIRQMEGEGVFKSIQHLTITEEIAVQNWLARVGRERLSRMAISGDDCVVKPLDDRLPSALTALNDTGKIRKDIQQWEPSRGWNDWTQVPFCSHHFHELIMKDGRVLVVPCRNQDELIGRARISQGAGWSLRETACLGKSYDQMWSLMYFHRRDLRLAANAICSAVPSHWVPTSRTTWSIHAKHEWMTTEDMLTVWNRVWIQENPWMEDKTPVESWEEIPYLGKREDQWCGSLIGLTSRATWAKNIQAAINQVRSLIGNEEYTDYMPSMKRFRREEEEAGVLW
# Chain of Induced myeloid leukemia cell differentiation protein Mcl-1 (Q07820 whole entry): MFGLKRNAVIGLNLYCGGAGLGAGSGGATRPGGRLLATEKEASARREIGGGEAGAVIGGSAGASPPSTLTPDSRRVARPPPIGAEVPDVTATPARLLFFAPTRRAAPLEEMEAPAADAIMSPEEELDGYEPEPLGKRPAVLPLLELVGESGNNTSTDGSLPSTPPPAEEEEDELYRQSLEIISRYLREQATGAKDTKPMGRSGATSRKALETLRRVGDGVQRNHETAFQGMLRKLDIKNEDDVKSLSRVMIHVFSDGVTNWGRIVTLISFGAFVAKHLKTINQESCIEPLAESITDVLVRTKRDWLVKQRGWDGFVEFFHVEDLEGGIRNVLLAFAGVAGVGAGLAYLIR
# Chain of Eukaryotic translation initiation factor 4E (P63073 whole entry): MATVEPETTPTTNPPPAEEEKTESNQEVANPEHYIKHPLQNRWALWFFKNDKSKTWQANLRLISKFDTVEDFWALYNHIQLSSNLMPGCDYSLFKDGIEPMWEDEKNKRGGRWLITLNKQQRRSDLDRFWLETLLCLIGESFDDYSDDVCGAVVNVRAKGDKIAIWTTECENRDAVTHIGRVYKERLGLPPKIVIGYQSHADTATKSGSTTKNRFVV
# Chain of Tyrosine-protein phosphatase non-receptor type 12 (Q05209 whole entry): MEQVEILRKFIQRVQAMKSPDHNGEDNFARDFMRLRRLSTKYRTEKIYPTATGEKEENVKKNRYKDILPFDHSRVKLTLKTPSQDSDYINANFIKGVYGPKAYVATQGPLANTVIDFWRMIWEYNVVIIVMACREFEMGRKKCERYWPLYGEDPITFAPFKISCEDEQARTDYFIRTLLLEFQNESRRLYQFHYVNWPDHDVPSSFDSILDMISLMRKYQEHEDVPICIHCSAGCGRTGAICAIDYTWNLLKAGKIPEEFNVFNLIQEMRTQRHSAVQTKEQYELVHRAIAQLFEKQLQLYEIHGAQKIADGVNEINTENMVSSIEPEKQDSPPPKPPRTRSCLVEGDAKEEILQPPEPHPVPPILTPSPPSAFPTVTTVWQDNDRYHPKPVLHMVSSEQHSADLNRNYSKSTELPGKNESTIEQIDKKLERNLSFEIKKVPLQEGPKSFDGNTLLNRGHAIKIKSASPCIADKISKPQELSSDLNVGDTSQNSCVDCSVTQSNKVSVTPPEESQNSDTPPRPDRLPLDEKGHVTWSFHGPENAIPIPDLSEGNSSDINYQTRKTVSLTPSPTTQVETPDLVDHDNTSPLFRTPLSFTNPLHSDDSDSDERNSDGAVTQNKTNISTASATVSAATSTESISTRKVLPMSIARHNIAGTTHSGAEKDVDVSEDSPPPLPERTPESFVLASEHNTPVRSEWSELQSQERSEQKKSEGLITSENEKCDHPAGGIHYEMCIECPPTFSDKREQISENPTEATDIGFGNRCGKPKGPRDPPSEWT
# Chain of Bcl-2-like protein 1 (Q07817 whole entry): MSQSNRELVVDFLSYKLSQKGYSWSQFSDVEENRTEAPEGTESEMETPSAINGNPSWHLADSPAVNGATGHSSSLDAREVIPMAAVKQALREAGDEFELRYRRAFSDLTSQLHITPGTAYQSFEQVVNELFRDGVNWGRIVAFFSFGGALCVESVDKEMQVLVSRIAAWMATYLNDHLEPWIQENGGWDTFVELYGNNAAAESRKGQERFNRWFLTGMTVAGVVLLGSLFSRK
# Chain of Phosphomannomutase 2 (O15305 whole entry): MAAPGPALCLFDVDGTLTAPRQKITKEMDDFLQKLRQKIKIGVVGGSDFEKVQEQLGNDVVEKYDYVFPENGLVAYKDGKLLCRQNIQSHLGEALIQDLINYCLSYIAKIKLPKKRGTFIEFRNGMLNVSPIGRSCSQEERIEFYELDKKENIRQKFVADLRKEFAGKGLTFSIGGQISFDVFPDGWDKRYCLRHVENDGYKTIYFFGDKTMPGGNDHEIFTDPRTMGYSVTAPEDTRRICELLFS
# Chain of Nonstructural protein 1 (Q194T2 whole entry): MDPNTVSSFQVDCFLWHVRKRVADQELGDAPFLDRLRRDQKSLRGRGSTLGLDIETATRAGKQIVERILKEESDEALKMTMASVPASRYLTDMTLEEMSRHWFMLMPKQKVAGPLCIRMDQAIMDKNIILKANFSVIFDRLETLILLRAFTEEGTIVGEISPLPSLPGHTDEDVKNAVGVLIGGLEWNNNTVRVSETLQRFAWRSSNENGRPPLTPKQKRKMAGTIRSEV
# Chain of SUMO E1/E2 (Q9UBE0 whole entry): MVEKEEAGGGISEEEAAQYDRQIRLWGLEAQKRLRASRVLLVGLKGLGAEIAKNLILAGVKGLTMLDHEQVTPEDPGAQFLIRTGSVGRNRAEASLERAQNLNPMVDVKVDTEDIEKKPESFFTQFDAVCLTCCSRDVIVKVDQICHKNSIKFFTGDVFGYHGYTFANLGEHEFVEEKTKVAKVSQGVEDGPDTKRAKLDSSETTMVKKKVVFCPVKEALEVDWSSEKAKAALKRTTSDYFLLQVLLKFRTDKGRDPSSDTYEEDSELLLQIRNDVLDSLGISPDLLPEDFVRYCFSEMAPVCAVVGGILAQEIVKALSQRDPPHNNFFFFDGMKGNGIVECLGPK
# Chain of SUMO E1/E2 (Q9UBT2 whole entry): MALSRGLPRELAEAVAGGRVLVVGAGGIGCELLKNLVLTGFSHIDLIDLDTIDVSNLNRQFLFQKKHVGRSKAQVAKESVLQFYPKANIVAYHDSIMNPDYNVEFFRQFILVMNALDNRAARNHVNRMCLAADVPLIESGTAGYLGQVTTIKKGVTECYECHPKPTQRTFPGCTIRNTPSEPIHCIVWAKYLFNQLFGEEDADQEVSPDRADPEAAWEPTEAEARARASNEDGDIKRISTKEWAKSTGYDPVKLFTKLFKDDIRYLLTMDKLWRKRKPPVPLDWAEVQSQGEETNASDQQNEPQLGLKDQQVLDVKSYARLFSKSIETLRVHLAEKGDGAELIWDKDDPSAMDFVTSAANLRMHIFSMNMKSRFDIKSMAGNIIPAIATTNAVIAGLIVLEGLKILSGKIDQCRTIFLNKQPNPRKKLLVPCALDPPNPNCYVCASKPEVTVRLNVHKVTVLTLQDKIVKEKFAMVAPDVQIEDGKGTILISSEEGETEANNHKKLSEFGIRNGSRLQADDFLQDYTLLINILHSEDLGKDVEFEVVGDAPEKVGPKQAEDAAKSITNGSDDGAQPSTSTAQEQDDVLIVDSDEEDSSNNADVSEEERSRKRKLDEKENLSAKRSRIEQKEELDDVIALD
# Chain of SUMO E1/E2 (P63279 whole entry): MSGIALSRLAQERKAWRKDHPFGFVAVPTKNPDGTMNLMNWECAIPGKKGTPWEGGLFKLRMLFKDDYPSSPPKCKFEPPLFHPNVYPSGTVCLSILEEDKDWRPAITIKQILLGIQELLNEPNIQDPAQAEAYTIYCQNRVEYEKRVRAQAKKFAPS
structure (smiles),measurement,setting,value
O=P(c1ccccc1)(c1nc2ccccc2s1)N1CCOCC1 (stereo not drawn),IC50,[1],> 50 µM (inactive)
same,IC50,[2],> 100 µM (inactive)
Cc1ccc(Nc2c(-c3ccccn3)nc3cc(C)ccn23)cc1,IC50,[3],1.7 µM (active)
same,EC50,[4],7.37 µM (active)
same,EC50,[5],4.69 µM (active)
same,IC50,[6],0.61 µM (active)
same,EC50,[7],12.2 µM (active)
same,EC50,[8],0.951 µM (active)
same,EC50,[9],49.3 µM (active)
same,EC50,[10],4.56 µM (active)
same,EC50,[11],7.83 µM (inconclusive)
same,EC50,[12],13.2 µM (active)
same,AC50,[13],4.81 µM (active)
same,AC50,[14],1.36 µM (active)
same,AC50,[15],4.06 µM (active)
same,AC50,[16],61.3 µM (active)
same,AC50,[17],5.48 µM (active)
same,AC50,[18],15.5 µM (active)
Cc1c(Cl)cccc1NS(=O)(=O)c1ccc2c(c1)C1C=CCC1C(c1ccc(C(=O)O)cc1)N2 (stereo not drawn),IC50,[19],5.02 µM (active)
same,IC50,[20],39.9 µM (active)
same,IC50,[21],49.8 µM (active)
same,IC50,[22],37.5 µM (active)
same,IC50,[23],6.54 µM (active)
same,IC50,[24],20.8 µM (active)
same,IC50,[25],50.8 µM (not active)
same,IC50,[26],26.9 µM (active)
same,IC50,[27],45 µM (active)
same,IC50,[28],2.36 µM (active)
same,IC50,[29],19.6 µM (active)
same,IC50,[30],15.8 µM (active)
same,IC50,[31],3.93 µM (active)
same,IC50,[32],48.5 µM (active)
same,IC50,[33],14.2 µM (active)
same,IC50,[34],> 100 µM (inactive)
same,IC50,[35],82.4 µM (active)
same,IC50,[36],47.4 µM (active)
same,IC50,[37],43.7 µM (active)
same,IC50,[38],62.2 µM (active)
same,IC50,[39],12.6 µM (active)
same,IC50,[40],5.38 µM (active)
same,IC50,[41],5.02 µM (active)
same,IC50,[42],23.6 µM (inactive)
O=C1CN(C(=O)COC(=O)COc2ccc3c(c2)CCC3)c2ccccc2N1,AC50,[43],48.6 µM (active)

# Source: ChEMBL document CHEMBL1201862, “PubChem BioAssay data set” (2004)
